{"source": "PubChem BioAssay (NCI)", "assay_in_all_cases": "DTP human tumour cell line panel, 48 h", "key": {"ACHN renal": {"system": "ACHN renal"}, "DU-145 prostate": {"system": "DU-145 prostate"}, "EKVX NSCLC": {"system": "EKVX NSCLC"}, "NCI/ADR-RES ovarian": {"system": "NCI/ADR-RES ovarian"}, "OVCAR-5 ovarian": {"system": "OVCAR-5 ovarian"}, "PC-3 prostate": {"system": "PC-3 prostate"}, "SF-268 CNS": {"system": "SF-268 CNS"}, "SK-MEL-28 melanoma": {"system": "SK-MEL-28 melanoma"}, "SK-MEL-5 melanoma": {"system": "SK-MEL-5 melanoma"}, "UACC-257 melanoma": {"system": "UACC-257 melanoma"}}, "note": "“And” between values parts separate entries of the source, which are not always exact repeats. Equal entries are not always repeated.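 Cells were grown in 96-well plates and exposed to each compound for 48 hours at five concentrations; endpoints were interpolated linearly between bracketing concentrations, or set to the highest concentration if not reached. At the GI50, growth is halved. TGI marks complete inhibition of growth.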", "data": [{"compound": "CNC(=O)OCc1c2ccncc2c(C)c2c1[nH]c1ccccc12", "values": [{"measurement": "TGI", "setting": "ACHN renal", "result": 0.522, "unit": "µM"}, {"measurement": "TGI", "setting": "DU-145 prostate", "result": 6.18, "unit": "µM"}, {"measurement": "TGI", "setting": "EKVX NSCLC", "result": 2.24, "unit": "µM"}, {"measurement": "TGI", "setting": "NCI/ADR-RES ovarian", "result": 2.3, "unit": "µM"}, {"measurement": "TGI", "setting": "OVCAR-5 ovarian", "result": 1.78, "unit": "µM"}, {"measurement": "TGI", "setting": "PC-3 prostate", "result": 20.7, "unit": "µM"}, {"measurement": "TGI", "setting": "SF-268 CNS", "result": 1.65, "unit": "µM"}, {"measurement": "TGI", "setting": "SK-MEL-28 melanoma", "result": 2.25, "unit": "µM"}, {"measurement": "TGI", "setting": "SK-MEL-5 melanoma", "result": 0.773, "unit": "µM"}, {"measurement": "TGI", "setting": "UACC-257 melanoma", "result": 2.05, "unit": "µM"}]}, {"compound": "COC1CCN(C(=O)c2cc(Cc3n[nH]c(=O)c4ccccc34)ccc2F)CC1", "values": [{"measurement": "GI50", "setting": "ACHN renal", "result": "> 100", "unit": "µM"}, {"measurement": "TGI", "setting": "ACHN renal", "result": "> 100", "unit": "µM"}, {"measurement": "GI50", "setting": "DU-145 prostate", "result": "> 85.7", "unit": "µM"}, {"measurement": "TGI", "setting": "DU-145 prostate", "result": "> 100", "unit": "µM"}, {"measurement": "GI50", "setting": "EKVX NSCLC", "result": "> 100", "unit": "µM"}, {"measurement": "TGI", "setting": "EKVX NSCLC", "result": "> 100", "unit": "µM"}, {"measurement": "GI50", "setting": "NCI/ADR-RES ovarian", "result": "> 76.8", "unit": "µM"}, {"measurement": "TGI", "setting": "NCI/ADR-RES ovarian", "result": "> 100", "unit": "µM"}, {"measurement": "GI50", "setting": "OVCAR-5 ovarian", "result": "> 100", "unit": "µM"}, {"measurement": "TGI", "setting": "OVCAR-5 ovarian", "result": "> 100", "unit": "µM"}, {"measurement": "GI50", "setting": "PC-3 prostate", "result": "> 87.6", "unit": "µM"}, {"measurement": "TGI", "setting": "PC-3 prostate", "result": "> 100", "unit": "µM"}, {"measurement": "GI50", "setting": "SF-268 CNS", "result": 58.3, "unit": "µM"}, {"measurement": "TGI", "setting": "SF-268 CNS", "result": "> 100", "unit": "µM"}, {"measurement": "GI50", "setting": "SK-MEL-28 melanoma", "result": "> 100", "unit": "µM"}, {"measurement": "TGI", "setting": "SK-MEL-28 melanoma", "result": "> 100", "unit": "µM"}, {"measurement": "GI50", "setting": "SK-MEL-5 melanoma", "result": 32, "unit": "µM"}, {"measurement": "TGI", "setting": "SK-MEL-5 melanoma", "result": "> 100", "unit": "µM"}, {"measurement": "GI50", "setting": "UACC-257 melanoma", "result": "> 83.2", "unit": "µM"}, {"measurement": "TGI", "setting": "UACC-257 melanoma", "result": "> 100", "unit": "µM"}]}, {"compound": "COC(=O)[C@]12CC[C@@H](C)[C@H](C)[C@@H]1C1=CC[C@@H]3[C@@]4(C)C(C=O)=C[C@@](C)(COC(C)=O)C4=CC[C@@]3(C)[C@]1(C)CC2", "values": [{"measurement": "GI50", "setting": "ACHN renal", "result": 3.12, "unit": "µM"}, {"measurement": "TGI", "setting": "ACHN renal", "result": 12.4, "unit": "µM"}, {"measurement": "GI50", "setting": "DU-145 prostate", "result": 5.24, "unit": "µM"}, {"measurement": "TGI", "setting": "DU-145 prostate", "result": 19.4, "unit": "µM"}, {"measurement": "GI50", "setting": "EKVX NSCLC", "result": 4.13, "unit": "µM"}, {"measurement": "TGI", "setting": "EKVX NSCLC", "result": 16.1, "unit": "µM"}, {"measurement": "GI50", "setting": "NCI/ADR-RES ovarian", "result": 5.35, "unit": "µM"}, {"measurement": "TGI", "setting": "NCI/ADR-RES ovarian", "result": 18.9, "unit": "µM"}, {"measurement": "GI50", "setting": "OVCAR-5 ovarian", "result": 5.75, "unit": "µM"}, {"measurement": "TGI", "setting": "OVCAR-5 ovarian", "result": 21.7, "unit": "µM"}, {"measurement": "GI50", "setting": "PC-3 prostate", "result": 3.07, "unit": "µM"}, {"measurement": "TGI", "setting": "PC-3 prostate", "result": 13.9, "unit": "µM"}, {"measurement": "GI50", "setting": "SF-268 CNS", "result": 4.38, "unit": "µM"}, {"measurement": "TGI", "setting": "SF-268 CNS", "result": 17, "unit": "µM"}, {"measurement": "GI50", "setting": "SK-MEL-28 melanoma", "result": 3.22, "unit": "µM"}, {"measurement": "TGI", "setting": "SK-MEL-28 melanoma", "result": 12.3, "unit": "µM"}, {"measurement": "GI50", "setting": "SK-MEL-5 melanoma", "result": 10.5, "unit": "µM"}, {"measurement": "TGI", "setting": "SK-MEL-5 melanoma", "result": 22.6, "unit": "µM"}, {"measurement": "GI50", "setting": "UACC-257 melanoma", "result": 4.19, "unit": "µM"}, {"measurement": "TGI", "setting": "UACC-257 melanoma", "result": 17.2, "unit": "µM"}]}, {"compound": "CN(C)CCNC(=O)C(C)(C)Oc1ccc(C(=O)c2ccc(Cl)cc2)cc1Cl", "values": [{"measurement": "TGI", "setting": "ACHN renal", "result": 23, "unit": "µM"}, {"measurement": "GI50", "setting": "DU-145 prostate", "result": 2.7, "unit": "µM"}, {"measurement": "TGI", "setting": "DU-145 prostate", "result": 26.1, "unit": "µM"}, {"measurement": "TGI", "setting": "EKVX NSCLC", "result": 23.9, "unit": "µM"}, {"measurement": "TGI", "setting": "NCI/ADR-RES ovarian", "result": 26.1, "unit": "µM"}, {"measurement": "TGI", "setting": "OVCAR-5 ovarian", "result": 28.9, "unit": "µM"}, {"measurement": "GI50", "setting": "PC-3 prostate", "result": 5.84, "unit": "µM"}, {"measurement": "TGI", "setting": "PC-3 prostate", "result": 24, "unit": "µM"}, {"measurement": "TGI", "setting": "SF-268 CNS", "result": 28.7, "unit": "µM"}, {"measurement": "GI50", "setting": "SK-MEL-28 melanoma", "result": 2.63, "unit": "µM"}, {"measurement": "TGI", "setting": "SK-MEL-28 melanoma", "result": "5.14 µM and 3.58 µM"}, {"measurement": "GI50", "setting": "SK-MEL-5 melanoma", "result": 1.53, "unit": "µM"}, {"measurement": "TGI", "setting": "SK-MEL-5 melanoma", "result": "6.11 µM and 2.97 µM"}, {"measurement": "GI50", "setting": "UACC-257 melanoma", "result": 3.11, "unit": "µM"}, {"measurement": "TGI", "setting": "UACC-257 melanoma", "result": "7.79 µM and 4.84 µM"}]}, {"compound": "O=[N+]([O-])c1ccc(Sc2ncnc3nc[nH]c23)c2nonc12", "values": [{"measurement": "GI50", "setting": "ACHN renal", "result": 4.04, "unit": "µM"}, {"measurement": "TGI", "setting": "ACHN renal", "result": 16.1, "unit": "µM"}, {"measurement": "GI50", "setting": "DU-145 prostate", "result": 5.16, "unit": "µM"}, {"measurement": "TGI", "setting": "DU-145 prostate", "result": "> 100", "unit": "µM"}, {"measurement": "GI50", "setting": "EKVX NSCLC", "result": 18.1, "unit": "µM"}, {"measurement": "TGI", "setting": "EKVX NSCLC", "result": 36.5, "unit": "µM"}, {"measurement": "GI50", "setting": "NCI/ADR-RES ovarian", "result": 5.16, "unit": "µM"}, {"measurement": "TGI", "setting": "NCI/ADR-RES ovarian", "result": 28.9, "unit": "µM"}, {"measurement": "GI50", "setting": "OVCAR-5 ovarian", "result": 10.3, "unit": "µM"}, {"measurement": "TGI", "setting": "OVCAR-5 ovarian", "result": 22.6, "unit": "µM"}, {"measurement": "GI50", "setting": "PC-3 prostate", "result": 13.1, "unit": "µM"}, {"measurement": "TGI", "setting": "PC-3 prostate", "result": 30, "unit": "µM"}, {"measurement": "GI50", "setting": "SF-268 CNS", "result": 5, "unit": "µM"}, {"measurement": "TGI", "setting": "SF-268 CNS", "result": 19.7, "unit": "µM"}, {"measurement": "GI50", "setting": "SK-MEL-28 melanoma", "result": 5.79, "unit": "µM"}, {"measurement": "TGI", "setting": "SK-MEL-28 melanoma", "result": 18.5, "unit": "µM"}, {"measurement": "GI50", "setting": "SK-MEL-5 melanoma", "result": 10.2, "unit": "µM"}, {"measurement": "TGI", "setting": "SK-MEL-5 melanoma", "result": 22.3, "unit": "µM"}, {"measurement": "GI50", "setting": "UACC-257 melanoma", "result": 4.52, "unit": "µM"}, {"measurement": "TGI", "setting": "UACC-257 melanoma", "result": 18.7, "unit": "µM"}]}, {"compound": "CCOC(=O)c1c(C)n2c(=O)cc(C)c3c(O)c(O)cc1c32", "values": [{"measurement": "GI50", "setting": "ACHN renal", "result": 1.82, "unit": "µM"}, {"measurement": "TGI", "setting": "ACHN renal", "result": 31.2, "unit": "µM"}, {"measurement": "GI50", "setting": "DU-145 prostate", "result": 29.1, "unit": "µM"}, {"measurement": "TGI", "setting": "DU-145 prostate", "result": "> 100", "unit": "µM"}, {"measurement": "GI50", "setting": "EKVX NSCLC", "result": 20.8, "unit": "µM"}, {"measurement": "TGI", "setting": "EKVX NSCLC", "result": "> 100", "unit": "µM"}, {"measurement": "GI50", "setting": "NCI/ADR-RES ovarian", "result": 28.3, "unit": "µM"}, {"measurement": "TGI", "setting": "NCI/ADR-RES ovarian", "result": 89.4, "unit": "µM"}, {"measurement": "GI50", "setting": "OVCAR-5 ovarian", "result": 43.8, "unit": "µM"}, {"measurement": "TGI", "setting": "OVCAR-5 ovarian", "result": "> 100", "unit": "µM"}, {"measurement": "GI50", "setting": "PC-3 prostate", "result": 4.23, "unit": "µM"}, {"measurement": "TGI", "setting": "PC-3 prostate", "result": "> 100", "unit": "µM"}, {"measurement": "GI50", "setting": "SF-268 CNS", "result": 5.88, "unit": "µM"}, {"measurement": "TGI", "setting": "SF-268 CNS", "result": "> 100", "unit": "µM"}, {"measurement": "GI50", "setting": "SK-MEL-28 melanoma", "result": 27.2, "unit": "µM"}, {"measurement": "TGI", "setting": "SK-MEL-28 melanoma", "result": "> 100", "unit": "µM"}, {"measurement": "GI50", "setting": "SK-MEL-5 melanoma", "result": 4.67, "unit": "µM"}, {"measurement": "TGI", "setting": "SK-MEL-5 melanoma", "result": 24.1, "unit": "µM"}, {"measurement": "GI50", "setting": "UACC-257 melanoma", "result": 2.7, "unit": "µM"}, {"measurement": "TGI", "setting": "UACC-257 melanoma", "result": 7.65, "unit": "µM"}]}]}
